Assay results as given in US20250326715A1, “NOVEL MAIN PROTEASE INHIBITORS, AND COMPOSITIONS AND METHODS THEREOF” (University of Massachusetts, priority 2023, published 2025).
Read-outs that look alike come from different tables or passages of the source.

Key:
OC-43 = type: cell-based; conditions: A549-hACE2 cells
SARS-CoV-2 PL^Pro = SARS-CoV-2 PL^Pro (Severe acute respiratory syndrome coronavirus 2, UniProt P0DTD1); assay: Determination of IC50 values for SARS-CoV-2 PL^Pro (Z-RLRGG-AMC substrate); type: biochemical
SARS-CoV-2 M^Pro [1] = biological target: T1, SARS-CoV-2 M^Pro (Severe acute respiratory syndrome coronavirus 2, UniProt P0DTD1); assay: Determination of KI values for SARS-CoV-2 M^Pro (initial velocity, competitive inhibition); type: biochemical
[2] = Pharmacokinetic parameters in mice (plasma, LC-MS/MS); conditions: for CI_Obs: IV
Description: Pharmacokinetics were evaluated in male C57Bl/6 mice, approximately 25 g. Test compounds were formulated at 0.3 mg/mL for intravenous dosing and 1 mg/mL for oral gavage. Formulation concentrations reflect free-base concentrations. Formulations were prepared by dissolving in DMSO (20× stock) and mixing 1:1 with tween-80. Prior to dosing, the formulation was diluted with sterile saline. The final formulation was 5% DMSO, 5% tween-80, 90% saline (v:v:v). Mice (n=3) were dosed at 10 μL per gram body weight. […] A total of 25 μL blood was collected at each time point. The hematocrit tubes were sealed with a wax plug and held on ice until plasma could be isolated via centrifugation in a microcentrifuge fit with a hematocrit rotor.
Drug levels were determined from 5 μL plasma. Plasma was treated with 75 μL 90/10 acetonitrile/water containing Carbamazepine as an internal standard (IS). Samples were loaded to a 96-well Millipore Multiscreen Solvinter 0.45 micron low binding PTFE hydrophilic filter plate and the filtrate was directly analyzed. All plasma samples were treated with 75 μL 90/10 acetonitrile/water with Carbamazepine as internal standard (IS) to extract the analyte and precipitate protein. The plates were agitated on ice for approximately five minutes prior to centrifugation into a collection plate. Separate standard curves were prepared in blank mouse plasma and brain homogenate and processed in parallel with the samples. The filtrate was directly analyzed by LC-MS/MS.

M^Pro = M^Pro (Severe acute respiratory syndrome coronavirus 2, UniProt P0DTD1); assay: Labelling of A549-hACE2 lysate spiked with recombinant M^Pro with SM144, competition by SM141 or SM142; type: binding, SARS-CoV-2; conditions: 250 nM M^Pro spiked, 2.5 μM SM144, 2.5-25 μM competitor
Description: A549-hACE2 cells were grown in the DMEM medium (supplemented with 10% heat-inactivated fetal bovine serum, 100 units/mL penicillin and 100 μg/mL streptomycin). Upon reaching ˜90% confluence, cells were collected using a cell scraper, harvested by centrifugation at 3,000 rpm for 5 min and were resuspended in 1×PBS supplemented with 1% NP-40. Then the cells were lysed using a probe sonicator and lysates were cleared by centrifugation at 21000 g for 15 min. Soluble proteins in the lysate were quantified by DC-assay (Bio-Rad).
A549-hACE2 lysate (2 mg/mL, 50 μL total) spiked with or without recombinant M^Pro (250 nM final) was treated with DTT (1 mM final) and various concentrations of SM144 (0-5 μM final). […] All these reactions were incubated at 25° C. for 30 min. Then TAMRA-N3 (100 μM), TCEP (1 mM), TBTA (0.3 mM) and freshly prepared copper (II) sulphate (4 mM) were added sequentially to the reaction mixture. The tubes were then gently tumbled at room temperature for 2 h. The precipitated proteins were collected by centrifugation at 5000 rpm for 6 min. The protein pellets were resuspended in 5×SDS-PAGE loading dye, heated at 95° C. for 10 min and separated by SDS-PAGE. Protein bands were visualized by recording in-gel fluorescence using a typhoon scanner (excitation/emission maxima ˜546/579 nm). All the experiments were performed in duplicate.

Cathepsin B = biological target: T2, Cathepsin B (Homo sapiens, UniProt P07858); assay: Cathepsin B inhibition assay kit (Abcam), IC50; type: biochemical; conditions: 20 min pretreatment
T2 construct: purchased Abcam ab185438
Description: (§1) Determination of IC50 and kinact/KI values for Cathepsins L and B
IC50 and kinact/KI values of the inhibitors were determined using commercially available inhibition assay kits (Abcam) by following the manufacturer's protocol. For IC50 values, enzymes were pretreated with test inhibitor (0-50 μM) for 20 min prior to adding the fluorogenic substrate, and end-point fluorescence was recorded after 30 min. For the kinact/KI values, enzymes were treated with inhibitor and substrate simultaneously and increase in fluorescence was monitored over 60 min. The observed rates (kobs) were determined by fitting to a single-phase association equation. The resulting kobs values were plotted against the concentrations of inhibitor and the data were fit to equation 2 to derive the kinact/KI values,
using GraphPad Prism, where kinact is the maximal rate of inactivation, KI is the concentration of inhibitor that affords half-maximal inactivation, and [I] is the concentration of inhibitor. When kobs with [I] varied linearly, kinact/KI was determined from the slope of the line. All the experiments were performed in triplicate. All fluorescence measurements were taken at absorption/emission wavelength of 400/505 nm using an EnVision 2105 plate reader. Crystallization of M^Pro in Complex with Inhibitors

SARS-CoV-2 [3] = assay: Antiviral activity in SARS-CoV-2-infected K18-hACE2 transgenic mice; type: in vivo; conditions: K18-ACE2 mice; for viral RNA loads and titers in lung tissue vs vehicle control: 72 h treatment; for inflammatory cytokines and chemokines (IFN-β, TNF-α, IL-1β, IL-6) in lung tissue: infected for 72 hours; for protection from SARS-CoV2-induced weight loss and lethality: intranasal 10 mg/kg once daily for 3 days starting 2 h prior to infection; for protection from SARS-CoV-2-induced weight loss and lethality: intraperitoneal 25 mg/kg twice daily for 5 days, post-infection; for histopathological analysis of lung tissue: treatment for 5 days
Description: For these studies, K18-hACE2 transgenic mice (K18-ACE2) were used that express human ACE2 under the control of the epithelial cell cytokeratin-18 (K18) promoter as this model provides robust SARS-CoV-2 infection.
All animal experiments were approved by the Institutional Animal Care Use Committees at the University of Massachusetts Chan Medical School. Animal were kept in a specific pathogen free (SPF) environment. Hemizygous K18-hACE2 C57BL/6J mice (strain: […] (K18-ACE2)2Prlmn/J) were obtained from The Jackson Laboratory. 8-12-week-old male and female mice were anesthetized with isoflurane and infected intranasally with 3×10^4 PFU of SARS-CoV-2. […] Mice were monitored daily for weight loss and survival. Lung samples were collected at indicated time points and placed in a bead homogenizer tube with 1 ml of DMEM+2% FBS for homogenization, then 100 μl of this mixture was placed in PBS for tittering or in 300 μl Trizol LS (Invitrogen) for RNA extraction. For histology, lungs were perfused with 10 U/mL Heparin, intratracheally inflated with 10% buffered-formalin and dissected from mice. Tissues were fixed in 4% paraformaldehyde overnight and embedded in 10% paraffin. Five micrometer thin sections were stained by H&E. Histomorphology, grading of histology scores and evaluation of inflammation of each H&E slide was evaluated by Applied Pathology Systems.

Cathepsin L = biological target: T3, Cathepsin L (Homo sapiens, UniProt P07711); assay: Cathepsin L inhibition assay kit (Abcam), IC50 and kinact/KI; type: biochemical; conditions: for IC50: 20 min pretreatment; for kinact/KI: read-out: Cathepsin L kinact/KI
T3 construct: purchased Abcam ab197012
T3 sequence (P07711 114-333): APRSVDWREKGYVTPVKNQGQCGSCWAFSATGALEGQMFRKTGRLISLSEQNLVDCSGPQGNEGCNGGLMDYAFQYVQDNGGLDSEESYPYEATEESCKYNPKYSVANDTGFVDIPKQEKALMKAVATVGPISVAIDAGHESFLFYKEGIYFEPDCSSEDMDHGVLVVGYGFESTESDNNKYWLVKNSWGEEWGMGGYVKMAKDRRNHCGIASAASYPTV
Description: as §1
IC50 and kinact/KI values of the inhibitors were determined using commercially available inhibition assay kits (Abcam) by following the manufacturer's protocol. […] The observed rates (kobs) were determined by fitting to a single-phase association equation. The resulting kobs values were plotted against the concentrations of inhibitor and the data were fit to equation 2 to derive the kinact/KI values,
using GraphPad Prism, where kinact is the maximal rate of inactivation, KI is the concentration of inhibitor that affords half-maximal inactivation, and [I] is the concentration of inhibitor. When kobs with [I] varied linearly, kinact/KI was determined from the slope of the line. All the experiments were performed in triplicate. […] Crystallization of M^Pro in Complex with Inhibitors

SARS-CoV-2 [4] = assay: microbe, parasite or virus in culture; type: cell-based; conditions: for EC90: read-out: EC90, inhibition of SARS-CoV-2 infection; for EC50: read-out: EC50, inhibition of SARS-CoV-2 infection; for IC50: hACE2 expressing A549 cells, read-out: IC50, block of SARS-CoV2 replication
SARS-CoV-2 M^Pro [5] = biological target: T1, SARS-CoV-2 M^Pro; assay: Determination of IC50 values for SARS-CoV-2 M^Pro (fluorogenic peptide substrate, end-point); type: biochemical
[6] = Severe acute respiratory syndrome coronavirus 2, A549-hACE2 cells
[7] = Severe acute respiratory syndrome coronavirus 2
[8] = 30 nM PL^Pro, 20 min preincubation, read-out: PL^Pro IC50
[9] = competitive inhibition, initial velocity, read-out: M^Pro Ki
[10] = male, C57Bl/6, mouse, plasma, iv, 3 mg/kg
[11] = male, C57Bl/6, mouse, plasma, po, 10 mg/kg
[12] = 12.5 nM M^Pro, 20 min preincubation, 30 μM substrate, read-out: M^Pro IC50

CCOC(=O)C=CC(CC1CCNC1=O)NC(=O)C(Cc1ccccc1)NC(=O)C(N)Cc1ccccc1 (stereo not drawn) [SM141]
inhibition of OC-43, in words (OC-43): inhibit OC-43
IC50 (SARS-CoV-2 PL^Pro): > 50 µM
inhibition of papain-like protease (PL^Pro), in words (SARS-CoV-2 PL^Pro): completely inactive
Ki (SARS-CoV-2 M^Pro [1]): 9 µM
oral bioavailability / oral absorption, in words ([2]; mice): minimal oral bioavailability
plasma half-life (T1/2), in words ([2]; mice): about an hour
tissue distribution, in words ([2]; mice): lower tissue distribution
CI_Obs ([2]; mice): 71.5 mL/min/kg
labeling of M^Pro in spiked A549-hACE2 lysate / its inhibition (M^Pro): dose dependently inhibited
IC50 (Cathepsin B): > 50 µM
viral RNA loads and titers in lung tissue vs vehicle control (SARS-CoV-2 [3]): remarkably lower
inflammatory cytokines and chemokines (IFN-β, TNF-α, IL-1β, IL-6) in lung tissue (SARS-CoV-2 [3]): Reduced inflammatory cytokines and chemokines were detected
protection from SARS-CoV2-induced weight loss and lethality (SARS-CoV-2 [3]): protects mice from SARS-CoV2-induced weight loss and lethality
protection from SARS-CoV-2-induced weight loss and lethality (SARS-CoV-2 [3]): protects K18-ACE2 mice from SARS-CoV-2-induced weight loss and lethality
in vivo antiviral efficacy, SM141 compared with SM142 (SARS-CoV-2 [3]; survival): better antiviral efficacy
histopathological analysis of lung tissue (SARS-CoV-2 [3]): significant reduction in lung inflammation and improved overall lung pathology
IC50 (Cathepsin L): 60 nM
antiviral activity, in words (SARS-CoV-2 [4]; A549-hACE2 cells, 2 μM, 24 h): almost completely blocks viral infection
EC90 (SARS-CoV-2 [4]; A549-hACE2 cells): 22 nM
EC50 (SARS-CoV-2 [4]; [6]): 8.2 nM
EC90 (SARS-CoV-2 [4]; [6]): 22.1 nM
IC50 (SARS-CoV-2 [4]; [7]): 8.2 nM
IC50 (SARS-CoV-2 M^Pro [5]): 900 nM

CCOC(=O)C=CC(CC1CCNC1=O)NC(=O)C(Cc1ccccc1)NC(=O)C(Cc1ccc(F)cc1)NC(=O)OC(C)(C)C (stereo not drawn) [SM142]
inhibition of OC-43, in words (OC-43): inhibit OC-43
inhibition of papain-like protease (PL^Pro), in words (SARS-CoV-2 PL^Pro): completely inactive
IC50 (SARS-CoV-2 PL^Pro; [8]): > 50 µM
Ki (SARS-CoV-2 M^Pro [1]; [9]): 10 µM
half-life ([2]; male, C57Bl/6, mouse, in vivo, po, 10 mg/kg): 126 min
AUC(0-inf) [2, 10]: 308 ng·h/mL
AUC(0-t) [2, 10]: 0.4 µM·h
Cmax [2, 10]: 400 nM
MRT inf [2, 10]: 1.9 h
Tmax [2, 10]: 4.8 min
Vd [2, 10]: 13.2 L/kg
half-life [2, 10]: 126 min
AUC(0-inf) [2, 11]: 347 ng·h/mL
AUC(0-t) [2, 11]: 0.5 µM·h
Cmax [2, 11]: 600 nM
Tmax [2, 11]: 4.8 min
bioavailability [2, 11]: 37.5%
oral bioavailability / oral absorption, in words ([2]; mice): significant oral absorption
tissue distribution, in words ([2]; mice): much higher tissue distribution than SM141
CI_Obs ([2]; mice): 169 mL/min/kg
labeling of M^Pro in spiked A549-hACE2 lysate / its inhibition (M^Pro): dose dependently inhibited
IC50 (Cathepsin B): 40 ± 9 µM
viral RNA loads and titers in lung tissue vs vehicle control (SARS-CoV-2 [3]): remarkably lower
inflammatory cytokines and chemokines (IFN-β, TNF-α, IL-1β, IL-6) in lung tissue (SARS-CoV-2 [3]): Reduced inflammatory cytokines and chemokines were detected
protection from SARS-CoV2-induced weight loss and lethality (SARS-CoV-2 [3]): protects mice from SARS-CoV2-induced weight loss and lethality
protection from SARS-CoV-2-induced weight loss and lethality (SARS-CoV-2 [3]): protects K18-ACE2 mice from SARS-CoV-2-induced weight loss and lethality
histopathological analysis of lung tissue (SARS-CoV-2 [3]): significant reduction in lung inflammation and improved overall lung pathology
IC50 (Cathepsin L): 145 nM
kinact/KI (Cathepsin L): 1830 M⁻¹ s⁻¹
EC50 (SARS-CoV-2 [4]; [6]): 14.7 nM
IC50 (SARS-CoV-2 [4]; [7]): 14.7 nM
IC50 (SARS-CoV-2 M^Pro [5]; [12]): 1800 nM

C#CCOCCC(=O)NC(Cc1ccc(F)cc1)C(=O)NC(Cc1ccccc1)C(=O)NC(C=CC(=O)OCC)CC1CCNC1=O (stereo not drawn) [SM144]
IC50 (SARS-CoV-2 PL^Pro; [8]): > 50 µM
Ki (SARS-CoV-2 M^Pro [1]; [9]): 4.5 µM
labeling of M^Pro in spiked A549-hACE2 lysate / its inhibition (M^Pro): selectively labels M^Pro in a dose-dependent manner
IC50 (Cathepsin B): > 50 µM
IC50 (Cathepsin L): 220 nM
kinact/KI (Cathepsin L): 1000 M⁻¹ s⁻¹
antiviral activity compared with SM141 and SM142 (SARS-CoV-2 [4]; A549-hACE2 cells): significantly lower antiviral activity than SM141 and SM142
IC50 (SARS-CoV-2 M^Pro [5]; [12]): 700 nM
